Source: patent US20180318325A1, “ANTIBODIES FOR TARGETING CANCER STEM CELLS AND TREATING AGGRESSIVE CANCERS” (GlycoMimetics, Inc., priority 2015, published 2018)

Legend:
MM1S^HECA452 [1] = assay: survival of SCID beige mice transplanted with MM1S^HECA452 cells; assay type: in vivo; settings: MM1S^HECA452 engrafted female SCID beige mice; FIG. 4
Method: (§1) The significance of these in vitro findings were studied in vivo. Female SCID beige mice were injected i.v. with either MM1S^par or MM1S^HECA452 (5×10^5 cells, n=8/group) and followed for survival (see, e.g., FIG. 2). In separate cohorts, the effect of treatment with saline control, GMI-1271, bortezomib (BTZ) or a combination of both was determined in mice transplanted with either MM1S^par or MM1S^HECA452 cells.

E-selectin [2] = target: T1, E-selectin (Homo sapiens, UniProt P16581); assay: static adhesion assay on E-selectin; assay type: cell-based; settings: GMI-1271 included during culture conditions; MM1S^HECA452 cells
T1 sequence (P16581 22-610): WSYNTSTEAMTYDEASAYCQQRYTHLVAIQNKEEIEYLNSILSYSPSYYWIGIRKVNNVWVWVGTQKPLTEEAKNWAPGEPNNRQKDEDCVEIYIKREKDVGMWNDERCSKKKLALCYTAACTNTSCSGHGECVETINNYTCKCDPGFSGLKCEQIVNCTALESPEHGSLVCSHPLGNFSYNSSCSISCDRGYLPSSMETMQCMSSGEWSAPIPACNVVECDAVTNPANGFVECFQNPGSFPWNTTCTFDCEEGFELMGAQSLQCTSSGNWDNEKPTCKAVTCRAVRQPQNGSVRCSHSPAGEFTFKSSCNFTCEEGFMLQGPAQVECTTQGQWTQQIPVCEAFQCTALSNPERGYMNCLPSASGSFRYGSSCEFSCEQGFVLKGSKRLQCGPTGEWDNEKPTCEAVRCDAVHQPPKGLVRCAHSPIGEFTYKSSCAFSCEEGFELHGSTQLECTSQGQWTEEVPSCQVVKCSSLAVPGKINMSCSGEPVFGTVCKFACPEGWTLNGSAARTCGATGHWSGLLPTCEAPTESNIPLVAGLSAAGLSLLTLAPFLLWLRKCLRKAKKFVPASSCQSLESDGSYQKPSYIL
Text: (§2) The derived cell lines could be passaged in vitro and were stable for enriched E-selectin ligand expression identified by antibody HECA-452.

E-selectin [3] = target: T1, E-selectin; assay: rolling on E-selectin under shear stress; assay type: cell-based; settings: both HECA-452 enriched and parental MM cell lines
Text: as §2

MM1S^par = assay: survival of SCID beige mice transplanted with MM1S^par cells; assay type: in vivo; settings: MM1S^par engrafted female SCID beige mice; FIG. 3
Method: as §1

MM1S^HECA452 [4] = assay: mobilization of human CD138+ MM cells into the bloodstream of mice with MM1S^HECA452 tumors; assay type: in vivo
Method: The number of human CD138+ MM cells was mobilized into the bloodstream in mice with MM1S^HECA452 tumors within 60 min following a single injection of GMI-1271 (see, e.g., FIG. 5) and persisted for at least 24 hours (2.37% v. 0.03%, p<0.001). This effect was consistent with GMI-1271 disrupting the tumor microenvironment and mobilizing MM1S^HECA-452 cells from the BM niche into the peripheral blood.

E-selectin [5] = target: T1, E-selectin; settings: MM1S cells that bind to HECA-452; previously reported; cited from earlier work
MM cells = settings: murine transplant models; Natoni et al., Blood, 2014; cited from earlier work
[6] = following a single injection of GMI-1271

Compound | survival / anti-myeloma activity (MM1S^HECA452 [1]) | adhesion of MM1S^HECA452 to E-selectin (E-selectin [2]) | rolling on E-selectin (E-selectin [3]) | survival (MM1S^par) | human CD138+ MM cells in the bloodstream (MM1S^HECA452 [4]; after a single injection of GMI-1271, 24 hours, v. 0.03%, p<0.001) [%] | persistence of mobilization (MM1S^HECA452 [4]; [6]) | time to mobilization of CD138+ MM cells into the bloodstream (MM1S^HECA452 [4]; [6]) [min] | rolling of MM1S cells on E-selectin (E-selectin [5]) | effect on activity of bortezomib in vivo (MM cells)
CC(C)C[C@H](NC(=O)[C@H](Cc1ccccc1)NC(=O)c1cnccn1)B(O)O [BTZ, bortezomib] | marked resistance to BTZ treatment |  |  |  |  |  |  |  | 
CC[C@H]1C[C@@H](C(=O)NCCNC(=O)CCOCCOCCOCCOCCOCCOCCOCCOCCOCCOCCOCCOC)C[C@@H](O[C@@H]2O[C@H](CO)[C@H](O)[C@H](O[C@@H](CC3CCCCC3)C(=O)[O-])[C@H]2NC(C)=O)[C@@H]1O[C@@H]1O[C@@H](C)[C@@H](O)[C@@H](O)[C@@H]1O.[Na+] [GMI-1271] |  | marked reduction in adhesion | profoundly inhibited rolling | no impact on survival | 2.37 | at least 24 hours | ≤ 60 | blocked the rolling | enhance the activity of bortezomib
